The results in this text go back to patent US9227935B2, “Piperidine/piperazine derivatives” (Janssen Pharmaceutica N.V., priority 2007, dated 2016).

The target of the assay is T1, human DGAT1 (Homo sapiens, UniProt O75907).
T1 construct: FLAG (N); made in house; host or cells: SF9 insect cells (baculovirus, pFastBac); total cell membranes used as the enzyme source
T1 sequence (O75907 1-488): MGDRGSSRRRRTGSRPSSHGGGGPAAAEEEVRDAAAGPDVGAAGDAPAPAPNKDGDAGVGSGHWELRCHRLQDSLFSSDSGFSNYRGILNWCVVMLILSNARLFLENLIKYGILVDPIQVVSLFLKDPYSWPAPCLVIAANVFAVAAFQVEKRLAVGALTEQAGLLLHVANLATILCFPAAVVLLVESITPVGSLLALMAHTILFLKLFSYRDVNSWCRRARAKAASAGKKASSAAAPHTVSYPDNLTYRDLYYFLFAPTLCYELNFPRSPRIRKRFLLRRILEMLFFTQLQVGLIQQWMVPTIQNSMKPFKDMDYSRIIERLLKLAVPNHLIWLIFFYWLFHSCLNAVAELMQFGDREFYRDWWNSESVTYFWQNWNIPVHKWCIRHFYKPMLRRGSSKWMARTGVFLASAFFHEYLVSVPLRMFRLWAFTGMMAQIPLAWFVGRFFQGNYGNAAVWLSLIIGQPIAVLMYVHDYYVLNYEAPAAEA
Put plainly: DGAT1 FlashPlate inhibition assay with DGAT1 membrane preparations. The assay is classed as biochemical. To be noted: IC50 values expressed in M; pIC50 = -logIC50; inhibition of DGAT1 activity. From the text:
The inhibiting activity of the present compounds on DGAT1 activity was screened in a single well procedure assay using DGAT1 comprising membrane preparations and DGAT1 substrate comprising micelles and determining formed radio-active triacylglycerol coming in close proximity of a flashplate surface by radioluminescence.
Said assay is described in full detail in WO2006/067071, the content of which is incorporated herein by reference.
By DGAT1 activity is meant the transfer of coenzyme A activated fatty acids to the 3-position of 1,2-diacylglycerols, thus forming a triglyceride molecule, by enzyme DGAT1.
human DGAT1 (NM012079.2) was cloned into the pFastBac vector, containing translation start, a FLAG-tag at the N-terminus as described in literature and a viral Kozak sequence (AAX) preceding the ATG to improve expression in insect cells. Expression was done as described in literature (Cases, S., Smith, S. J., Zheng, Y., Myers H. M., Lear, S. R., Sande, E., Novak, S., Collins, C., Welch, C. B., Lusis, A. J., Erickson, S. K. and Farese, R. V. (1998) Proc. Natl. Acad. Sci. USA 95, 13018-13023.) using SF9 cells.
72 h transfected SF9 cells were collected by centrifugation (13000 rpm-15 min-4° C.) and lysed in 2×500 ml lysis buffer (0.1M Sucrose, 50 mM KCl, 40 mM KH2PO4, 30 mM EDTA pH 7.2. Cells were homogenized by cell disruptor. After centrifugation 1380 rpm-15 min-4° C. (SN discarded), pellet was resuspended in 500 ml lysis buffer and total cell membranes collected by ultracentrifugation at 34000 rpm (100 000 g) for 60 min (4° C.). The collected membranes were resuspended in lysis buffer, divided in aliquots and stored with 10% glycerol at −80° C. until use.
Add 1 ml dioleoyl-sn-glycerol (10 mg/ml) to 10 ml of L-α-phosphatidylcholine (1 mg/ml) and 10 ml of L-α-phosphatidyl-L-serine (1 mg/ml) in a thick glass recipient. Evaporate under nitrogen and put on ice for 15 minutes. Reconstitute in 10 ml Tris/HCl (10 mM, pH 7.4) by sonication on ice. The sonification process consists of sonification cycles of 10 seconds in the sonification bath followed by 10 seconds cool down on ice and repeating this sonification cycle till a homogeneous solution is obtained (takes about 15 minutes). The thus obtained micelles are stored at −20° C. till later use and contain DAG at a final concentration of 1.61 mM.
• 50 mM Tris-HCl (pH 7.4), 150 mM MgCl2, 1 mM EDTA, 0.2% BSA. b) N-ethylmaleimide, 5M • Dissolve 5 g into a final volume of 8 ml DMSO 100% and store at −20° C. in aliquots till later use. c) Substrate mix (for 1 384 well plate=3840 μl) • 612 μl micelles stock (51 μM final) • 16.6 μl oleoylCoA 9.7 mM • 23 μl [^3H]-oleoylCoA (49 Ci/mmol, 500 μCi/ml) • 3188.4 μl Tris pH 7.4, 10 mM d) Enzyme mix (for 1 384 well plate=3520 μl) (5 μg/ml) • Add 11.73 μl of DGAT membrane stock (1500 μg/ml stock) to 3508 μl assay buffer. e) Stop mix (for 1 384 well plate=7.68 ml) (250 mM) • Add 384 μl of N-ethylmaleimide (5M) to 3.456 ml DMSO 100%, and further dilute 3.84 ml of said solution with 3.84 ml DMSO 10%. Method
DGAT activity in membrane preparations was assayed in 50 mM Tris-HCl (pH 7.4), 150 mM MgCl2, 1 mM EDTA and 0.2% BSA, containing 50 μM DAG, […] PC/PS and 8.4 μM [^3H]-oleoylCoA (at a specific activity of 30 nCi/well) in a final volume of 50 μl in 384-well format using the red shifted Basic Image FlashPlate™ (Perkin Elmer Cat. No. SMP400).
In detail, 10 μl enzyme mix and 10 μl substrate mix were added to 30 μl of assay buffer, optionally in the presence of 1 μl DMSO (blank and controls) or 1 μl of the compound to be tested. This reaction mixture was incubated for 120 minutes at 37° C. and the enzymatic reaction stopped by adding 20 μl of the stop mix. The plates were sealed and the vesicles allowed to settle overnight at room temperature. Plates were centrifuged for 5 minutes at 1500 rpm and measured in Leadseeker. […]
In the case of `O=C(O)Cc1cccc(C(=O)Nc2ccc(N3CCN(C(=O)Nc4c(Cl)cc(CN5CCCCC5)cc4Cl)CC3)cc2)c1` [Compound 143], 3310 nM corresponded to half-maximal inhibition (IC50).

As to `O=C(Nc1ccc(N2CCN(C(=O)Nc3ccccc3Br)CC2)cc1)c1ccccc1-c1ccc(C(F)(F)F)cc1` [Compound 88], half-maximal inhibition (IC50) was put at 1380 nM.

Consider `Cc1cccc(C(=O)Nc2ccc(C3CCN(C(=O)Nc4c(Cl)cccc4Cl)CC3)cc2)c1-c1ccc(C(F)(F)F)cc1` [Compound 59], for which half-maximal inhibition (IC50) required 2040 nM.

`CCCNC(=O)N1CC=C(c2ccc(NC(=O)c3ccccc3-c3ccc(C(F)(F)F)cc3)cc2)CC1` [Compound 119]: 4680 nM corresponded to half-maximal inhibition (IC50).

For the compound `Cc1cc(C)n(-c2cccc(C(=O)Nc3ccc(N4CCN(C(=O)Nc5c(Cl)cccc5Cl)CC4)cc3)c2)n1` [Compound 28], the half-maximal inhibitory concentration (IC50) – broadly, the concentration that inhibits the measured activity by half – is 5.01 nM.

With `O=C(Nc1ccc(C2CCN(C(=O)Nc3c(Cl)cccc3Cl)CC2)cc1)c1ccccc1-c1ccc(Cl)cc1` [Compound 57], the IC50 was 646 nM.

`CCc1nc(C)c(-c2ccccc2C(=O)Nc2ccc(N3CCN(C(=O)Nc4c(Cl)cccc4Cl)CC3)cc2)s1` [Compound 18] had a 50% inhibitory concentration (IC50) of 40.7 nM.

Compound `Cc1nc(C(=O)Nc2ccc(N3CCN(C(=O)Nc4c(Cl)cccc4Cl)CC3)cc2)c(-c2cccc(C(F)(F)F)c2)s1` [Compound 65] showed a 50% inhibitory concentration (IC50) of 204 nM.

On to `CCOC(=O)Cc1cccc(C(=O)Nc2ccc(N3CCN(C(=O)Nc4c(Cl)cc(CN5CCCCC5)cc4Cl)CC3)cc2)c1` [Compound 138], for which the half-inhibitory concentration (IC50) was 11.5 nM.

In the case of `O=C(Nc1ccc(N2CCN(C(=O)NCC3CCCCC3)CC2)cc1)c1ccccc1-c1ccc(C(F)(F)F)cc1` [Compound 5], half-maximal inhibition (IC50) required 7590 nM.

With `O=C(Nc1ccc(N2CCN(C(=O)Nc3c(Br)cc(Br)cc3Br)CC2)cc1)c1ccccc1-c1ccc(C(F)(F)F)cc1` [Compound 97], inhibition was half-maximal at 490 nM (IC50).

`O=C(Nc1ccc(N2CCN(C(=O)Nc3c(Cl)cccc3Cl)CC2)cc1)c1cccc(N2CCCCC2)c1` [Compound 37] gave an IC50 of 1.74 nM.

Consider `CCOC(=O)c1cccc(C(=O)Nc2ccc(N3CCN(C(=O)Nc4c(Cl)cccc4Cl)CC3)cc2)c1` [Compound 125], for which the half-maximal inhibitory concentration (IC50) was 2.82 nM.

With `O=C(Nc1cccc(N2CCCC2)c1)c1ccc(N2CCN(C(=O)Nc3c(Cl)cc(CN4CCCC4)cc3Cl)CC2)cc1` [Compound 130], 7.24 nM corresponded to half-maximal inhibition (IC50).

Consider `O=C(Nc1ccc(N2CCN(C(=O)Nc3c(Cl)cc(Cl)cc3Cl)CC2)cc1)c1ccccc1-c1ccc(C(F)(F)F)cc1` [Compound 99], for which the IC50 was 1820 nM.

`CCOc1ccccc1NC(=O)N1CCN(c2ccc(NC(=O)c3ccccc3-c3ccc(C(F)(F)F)cc3)cc2)CC1` [Compound 81] had an IC50 of 8130 nM.

Consider `COC(=O)c1ccccc1NC(=O)N1CCN(c2ccc(NC(=O)c3ccccc3-c3ccc(C(F)(F)F)cc3)cc2)CC1` [Compound 86], for which half-maximal inhibition (IC50) required 9770 nM.

`O=C(Nc1ccc(N2CCN(C(=O)Nc3c(Cl)cccc3Cl)CC2)cc1)c1ccc(-c2cnco2)cc1` [Compound 15] gave an IC50 of 12.9 nM.

`Cc1nc(C(=O)Nc2ccc(C3CCN(C(=O)Nc4c(Cl)cccc4Cl)CC3)cc2)c(-c2ccc(C(C)C)cc2)s1` [Compound 3]: the half-maximal inhibitory concentration (IC50) was 1170 nM.

`O=C(Nc1ccc(C2=CCN(C(=O)NCCCc3ccccc3)CC2)cc1)c1ccccc1-c1ccc(C(F)(F)F)cc1` [Compound 122] gave a half-maximal inhibitory concentration (IC50) of 1510 nM.

The compound `O=C(Nc1ccc(N2CCN(C(=O)Nc3c(Cl)cccc3Cl)CC2)cc1)c1ccc(-c2ccccn2)cc1` [Compound 126] gave a half-inhibitory concentration (IC50) of 9.55 nM.

`CCOC(=O)c1ccc(NC(=O)N2CCN(c3ccc(NC(=O)c4ccccc4-c4ccc(C(F)(F)F)cc4)cc3)CC2)cc1` [Compound 72] had a concentration for half-maximal inhibition (IC50) of 7760 nM.

As for `CC(C)(C)c1ccc(-c2ccccc2C(=O)Nc2ccc(C3CCN(C(=O)Nc4c(Cl)cccc4Cl)CC3)cc2)cc1` [Compound 62], the concentration for half-maximal inhibition (IC50) was 550 nM.

Turning to `Cc1cc(C)c(NC(=O)N2CCN(c3ccc(NC(=O)c4ccccc4-c4ccc(C(F)(F)F)cc4)cc3)CC2)c(Cl)c1` [Compound 102], it took 170 nM to reach half-maximal inhibition (IC50).

Turning to `CSc1ccccc1NC(=O)N1CCN(c2ccc(NC(=O)c3ccccc3-c3ccc(C(F)(F)F)cc3)cc2)CC1` [Compound 93], the 50% inhibitory concentration (IC50) was 4790 nM.

Compound `O=C(Nc1cccc(N2CCCC2)c1)c1ccc(N2CCN(C(=O)Nc3c(Cl)cc(CCN4CCCC4)cc3Cl)CC2)cc1` [Compound 129] gave an IC50 of 5.37 nM.

Take `COc1cccc(OC)c1NC(=O)N1CCC(c2ccc(NC(=O)c3ccccc3-c3ccc(C(F)(F)F)cc3)cc2)CC1` [Compound 111]: it took 4570 nM to reach half-maximal inhibition (IC50).

The compound `Cc1ccc(C)n1-c1ccc(C(=O)Nc2ccc(N3CCN(C(=O)Nc4c(Cl)cccc4Cl)CC3)cc2)cc1` [Compound 19] gave a half-inhibitory concentration (IC50) of 145 nM.

In turn, `Cc1ccccc1-c1cccc(C(=O)Nc2ccc(N3CCN(C(=O)Nc4c(Cl)cccc4Cl)CC3)cc2)c1` [Compound 36] showed an IC50 of 1.74 nM.

`O=C(Nc1ccc(N2CCN(C(=O)Nc3c(Cl)cccc3Cl)CC2)cc1)c1cccc(N2CCOCC2)c1` [Compound 40]: the IC50 was 6.61 nM.

On to `Cc1cc(C)c(NC(=O)N2CCN(c3ccc(NC(=O)c4ccccc4-c4ccc(C(F)(F)F)cc4)cc3)CC2)c(C)c1Br` [Compound 104], for which the IC50 is 2000 nM.

In the case of `Cc1ccc2c(c1)C(=O)c1cc(C)cc(C(=O)Nc3ccc(N4CCN(C(=O)Nc5c(Cl)cccc5Cl)CC4)cc3)c1-2` [Compound 67], the midpoint of inhibition, the IC50, lay at 148 nM.

Take `Cc1cc(Br)cc(C)c1NC(=O)N1CCN(c2ccc(NC(=O)c3ccccc3-c3ccc(C(F)(F)F)cc3)cc2)CC1` [Compound 100]: the 50% inhibitory concentration (IC50) is 1550 nM.

As to `O=C(Nc1ccc(C2CCN(C(=O)Nc3c(Cl)cccc3Cl)CC2)cc1)C1CSCN1` (centres unmarked) [Compound 48], the midpoint of inhibition, the IC50, lay at 3550 nM.

`Cc1ccc(C(=O)Nc2ccc(C3CCN(C(=O)Nc4c(Cl)cccc4Cl)CC3)cc2)c(-c2ccc(C(F)(F)F)cc2)c1` [Compound 58]: inhibition was half-maximal at 355 nM (IC50).

Compound `O=C(Nc1ccc(N2CCN(C(=O)Nc3ccccc3F)CC2)cc1)c1ccccc1-c1ccc(C(F)(F)F)cc1` [Compound 90] gave a half-inhibitory concentration (IC50) of 2950 nM.

For the compound `O=C(Nc1ccc(C2CCN(C(=O)Nc3c(Cl)cccc3Cl)CC2)cc1)C1CNC1` [Compound 46], the concentration for half-maximal inhibition (IC50) was 2400 nM.

`Nc1ccccc1C(=O)Nc1ccc(C2CCN(C(=O)Nc3c(Cl)cccc3Cl)CC2)cc1` [Compound 10] had an IC50 of 324 nM.
